# According to BindingDB's records for doi:10.1016/j.ejmech.2018.06.052 (Cnrs/University of Strasbourg, 2018):
# Assay: Induction of PHB2-mediated melanogenesis in mouse Melan-a cells assessed as pigmentation after 72 hrs
compound,measurement,value
NCCOCCOCCNc1nc(NCc2cccc(F)c2)nc(Oc2c(F)c(F)c(F)c(F)c2F)n1,EC50,2500 nM
